Results as given in patent US20040110637A1, “Method of safening crops using isoxazoline carboxylates” (priority 2001, published 2004).

How the values were obtained:
Type in all cases: in vivo
[1] = tested on: ZEAMA = Zea mays (maize), variety Lorenzo; test: Corn seed treatment with safener, then pre-emergence herbicide H1 (isoxaflutole); visual crop injury; settings: safener seed treatment 0.1 g a.i./kg seed + Herbicide H1 pre-emergent 100 g a.i./ha
Method: (§1) The number of crop seeds that would be needed for each safener rate was calculated. Based on the weight of 100 seeds, sufficient seeds were weighed into screw top glass bottles approximately twice the volume of the seeds.
(§2) The prospective safeners were formulated as wettable powders or water dispersible granules. These formulations were weighed out so that the required rates (g a.i./kg seed) would be obtained. The samples were added to the seeds in the bottles and then sufficient water added to produce a slurry. The bottles were capped and then placed in an overhead shaker (set at medium speed for up to 1 hour) so that the seeds were evenly coated with the slurry. The bottles were uncapped and the seeds used in the pre- or post-emergence tests as described in sections 1.2 and 1.3.
(§3) As an alternative seed treatment method, active ingredient of the prospective safeners was weighed and dissolved in a solvent (e.g. acetone) and added to the seeds in the bottles. […]
(§4) In tests in which larger quantities of seeds required treatment, the prospective safeners, either as formulated samples in water or as active ingredient dissolved in solvent were applied to seeds using a mini-rotostat apparatus. […]
(§5) Corn seeds were treated according to example 1.1. […] After 3 to 4 weeks the results were visually scored in comparison with control plants (without seed treatment and herbicide treatment).

[2] = tested on: TRZAS, Triticum aestivum (wheat), variety Ralle; test: Wheat seed treatment with safener, then pre-emergence herbicide H2 (metolachlor); visual crop injury; settings: for Safener effect in % reduction in crop injury: TRZAS
Method: as §1, §2
(§6) As an alternative seed treatment method, active ingredient of the prospective safeners was weighed and dissolved in a solvent (e.g. acetone) and added to the seeds in the bottles. The solvent type and volume was selected based on prior experience so that it would have no negative impact on seed germination or subsequent plant growth. After shaking for up to 1 hour (overhead shaker) the seeds were spread out on paper in a fume cabinet to allow the remaining solvent to evaporate. The seeds were then used in the pre- or post-emergence tests as described in sections 1.2 and 1.3.
(§7) In tests in which larger quantities of seeds required treatment, the prospective safeners, either as formulated samples in water or as active ingredient dissolved in solvent were applied to seeds using a mini-rotostat apparatus. The seeds were allowed to dry for a short time before being used in the pre- or post-emergence tests as described in sections 1.2 and 1.3.
(§8) The safener treated seeds and untreated comparison seeds were sown into 7 to 13 cm round pots in a sandy loam soil and covered with approximately 0.5 to 1 cm of a 1 to 1 mix of sandy loam soil and sand. Herbicidal substances, as liquid (e.g. Emulsifiable concentrates) or dry (e.g. wettable powder) formulations, were diluted to the required concentrations in deionised water and applied to the soil surface using a track sprayer calibrated to deliver 300 to 800 litres of spray solution per hectare.
(§9) The pots were placed under good growing conditions in a glasshouse and a visual assessment of herbicidal effects made after 3 to 4 weeks after herbicide application. Assessment was on a percentage basis in comparison with untreated control plants (0%=no injury, 100%=complete kill).
Wheat or barley seeds were treated according to example 1.1. After sowing the herbicide was applied pre-emergent on the soil surface as described in example 1.2. After 3 to 4 weeks the results were visually scored in comparison with control plants (without seed treatment and herbicide treatment).

[3] = tested on: HORVS = Hordeum vulgare (barley), variety Boroness; test: Barley seed treatment with safener, then pre-emergence herbicide H2 (metolachlor); visual crop injury; settings: for Safener effect in % reduction in crop injury: HORVS
Method: as §1, §2, §6, §7, §8, §9
Wheat or barley seeds were treated according to example 1.1. […] After 3 to 4 weeks the results were visually scored in comparison with control plants (without seed treatment and herbicide treatment).

corn (variety Dea) = test: Corn seed treatment with safener, then post-emergence herbicide H3 (diflufenzopyr + dicamba sodium salts); visual crop injury
Method: as §1, §2, §3, §4, §5

[4] = safener seed treatment 0.5 g a.i./kg seed + Herbicide H2 pre-emergent 700 g a.i./ha
[5] = safener seed treatment 1 g a.i./kg seed + Herbicide H2 pre-emergent 700 g a.i./ha
[6] = safener seed treatment 2 g a.i./kg seed + Herbicide H2 pre-emergent 700 g a.i./ha

Compound: CCOC(=O)C1=NOC(c2ccccc2)(c2ccccc2)C1 [(lb)]
- Safener effect in % reduction in crop injury ([1]; ZEAMA): 71%
- % injury to ZEAMA ([1]; after 3 to 4 weeks): 10%
- % injury to TRZAS [2, 4]: 10%
- Safener effect in % reduction in crop injury [2, 4]: 86%
- % injury to TRZAS [2, 5]: 20%
- Safener effect in % reduction in crop injury [2, 5]: 73%
- % injury to TRZAS [2, 6]: 15%
- Safener effect in % reduction in crop injury [2, 6]: 79%
- % injury to HORVS [3, 4]: 0%
- Safener effect in % reduction in crop injury [3, 4]: 100%
- % injury to HORVS [3, 5]: 0%
- Safener effect in % reduction in crop injury [3, 5]: 100%
- % injury to corn (variety Dea) (corn (variety Dea); safener seed treatment 0.01 g a.i./kg seed + Herbicide H3 500 g a.i./ha (head: pre-emergent; text: post-emergent at 2 to 3-leaf stage)): 10%
- Safener effect in % reduction in crop injury (corn (variety Dea); safener seed treatment 0.01 g a.i./kg seed + Herbicide H3 500 g a.i./ha, corn variety Dea): 57%
